The values below come from patent publication US20240391978A1, “APOLIPOPROTEIN FUSION PROTEINS FOR CELL-SPECIFIC IMMUNE REGULATION” (BIO-TRIP B.V., priority 2021, published 2024).

For assay [1], the system named is HEK-Blue™ IL4/IL13 cells. In words: Human embryonic kidney 293 IL4 reporter cell assay (Example 2). In kind it is cell-based. The note with it: IL4Rα/STAT6-inducible reporter. As to the method: This cell line has a fully active STAT6 pathway and carries a STAT6-inducible SEAP reporter gene. […] The levels of secreted SEAP can be determined with QUANTI-Blue™ (Invivogen). 180 μL DMEM with 10% FBS and 1% Pen-Strep containing […] was added per well in a 96-well-plate. Subsequently, 20 μL stimulus or vehicle was added and cells were incubated for 20-24 hours at 37° C. Subsequently, 180 μL QUANTI-Blue was added per well to a separate 96-well-plate (flat-bottom) and 20 μL of the cell supernatant was added. The plate was incubated for 1-3 hours at 37° C. and absorbance at 640 nm was measured on a Tecan Spark plate reader to determine SEAP levels.

The subject of assay [2] is primary human monocytes. The assay can be described thus: In vitro inflammation inhibition, LPS-stimulated monocytes. Format: cell-based. The conditions noted are these: 1 hour pre-incubation with inhibitor (Table 2), IL4 + LPS 24 h. As to the method:
(§1) For pharmacological inhibition experiments, the monocytes were pre-incubated for 1 hour with one of the inhibitors described in Table 2 before addition of the training stimulus.
In vitro inflammation inhibition: Monocytes were adhered to a flat-bottom cell culture plate for 1 hour and washed with warm PBS to remove any non-adherent cells and cell debris. […] Following the initial 24-hour stimulation, the supernatants were collected and stored at −20° C. until further analysis with ELISA for IL6 and TNF.
(§2) Cytokine and lactate measurements: TNF, IL6, and IL1Ra were measured in cell culture supernatants using duoset ELISA kits (R&D systems), according to the manufacturer's instructions. For lactate measurements, a fluorometric assay was used. 30 μl sample, medium control, or known standard was added to a black 96-well plate. Then, 30 μl reaction mix (PBS pH 7.4, horse radish peroxidase (0.2 U/ml), lactate oxidase (2 U/ml), Amplex red (100 μM; Fisher scientific)) was added and the reaction was incubated for 20 minutes in the dark at RT. Immediately thereafter, fluorescence was measured at 530/25 nm and 590/35 nm. Gen5 software (v3.03, BioTek) was used in conjunction with Microsoft Excel to calculate cytokine and lactate concentrations in the original samples.

Assay [3] relates to primary human monocytes. In words: In vitro model of trained immunity in primary human monocytes. Format: cell-based. The conditions noted are these: 1 hour pre-incubation with inhibitor (Table 2) before IL4 training.
Excerpt: In vitro model of trained immunity in primary human monocytes: To induce trained immunity in primary human monocytes, a previously optimized and published method was used (Dominguez-Andres, J. et al. In vitro induction of trained immunity in adherent human monocytes. STAR Protoc 2, 100365, doi:10.1016/j.xpro.2021.100365 (2021); van Lier, D., Geven, C., Leijte, G. P. & Pickkers, P. Experimental human endotoxemia as a model of systemic inflammation. Biochimie 159, 99-106, doi:10.1016/j.biochi.2018.06.014 (2019)). Briefly: monocytes were adhered to a flat-bottom cell culture plate for 1 hour and washed with warm PBS to remove any non-adherent cells and cell debris. Then, they were stimulated (“trained”) for 24 hours with one of the stimuli detailed in Table 1, or medium only (“untrained” control).
as §1
Following the initial 24-hour stimulation, the cells were washed with warm PBS and warm cell culture medium was added. The monocytes were then allowed to rest and differentiate into macrophages for 5 days. On day 6, the induction of trained immunity was assessed. To this end, the cells were typically re-stimulated with LPS for an additional 24 hours to elicit cytokine production. The supernatants were collected and stored at −20° C. until further analysis, e.g. with ELISA for IL6 and TNF.
as §2

In assay [4] the target is T1, IL4 receptor in human monocytes (Homo sapiens, UniProt P24394).
T1 construct: Human monocytes were isolated from a healthy donor's peripheral blood as described above; endogenous in cells; host or cells: primary human monocytes from a healthy donor's peripheral blood
T1 sequence (P24394 26-825): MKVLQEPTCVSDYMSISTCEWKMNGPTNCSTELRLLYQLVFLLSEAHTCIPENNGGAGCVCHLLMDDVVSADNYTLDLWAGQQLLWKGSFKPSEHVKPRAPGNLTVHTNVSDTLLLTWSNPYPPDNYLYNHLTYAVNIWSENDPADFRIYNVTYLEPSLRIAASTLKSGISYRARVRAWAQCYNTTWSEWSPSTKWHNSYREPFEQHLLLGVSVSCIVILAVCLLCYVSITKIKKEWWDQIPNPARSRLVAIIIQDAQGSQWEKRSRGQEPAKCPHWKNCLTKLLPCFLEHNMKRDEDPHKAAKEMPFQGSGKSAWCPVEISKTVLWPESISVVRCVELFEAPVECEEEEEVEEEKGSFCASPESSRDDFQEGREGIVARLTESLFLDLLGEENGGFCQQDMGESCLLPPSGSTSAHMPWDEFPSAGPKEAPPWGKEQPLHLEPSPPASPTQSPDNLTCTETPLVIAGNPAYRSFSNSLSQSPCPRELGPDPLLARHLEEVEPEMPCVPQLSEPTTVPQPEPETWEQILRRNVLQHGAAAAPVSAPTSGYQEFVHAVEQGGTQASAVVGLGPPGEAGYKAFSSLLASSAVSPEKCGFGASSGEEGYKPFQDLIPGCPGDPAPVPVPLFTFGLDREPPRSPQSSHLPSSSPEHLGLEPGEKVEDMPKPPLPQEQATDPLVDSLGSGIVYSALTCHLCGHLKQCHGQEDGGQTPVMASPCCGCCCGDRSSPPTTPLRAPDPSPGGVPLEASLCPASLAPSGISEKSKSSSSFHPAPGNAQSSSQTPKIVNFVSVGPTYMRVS
In words: Super-resolution fluorescence microscopy (dSTORM) of interactions with IL4 receptor. Format: cell-based. The procedure:
100,000 monocytes were seeded per well on a cell culture-treated chambered coverslip (μ-Slide 8-well, IBID). After 2 hours of incubation at 37° C. […] Subsequently, the cells were washed with PBS and fixed with 4% PFA for 20 minutes. […] The stained cells were stored in PBS at 4° C. For the direct stochastic optical reconstruction microscopy (dSTORM), the cells were immersed in GLOXY imaging buffer (40 μg/ml catalase, 0.5 mg/ml glucose oxidase, 5% glucose and 0.01 M cysteamine in PBS, pH 8.0) for a few minutes before and during the imaging. The acquisition was performed in Total Internal Reflection Fluorescence (TIRF) mode, using ONI Nanoimager (ONI, Oxford, UK). It is equipped with a 100×/1.4NA oil immersion objective, a sCMOS camera, and, in this study, 488 nm (200 mW) and 640 nm (1000 mW) lasers were used. 10000 frames were acquired with a 10 ms exposure time with the field of view of 50×80 μm. Raw data were processed using the ThunderSTORM software, yielding images with a spatial resolution of 10 nm.

Assay [5] deals with T2, CD8 receptor (Mus musculus, UniProt P01731+P10300).
T2 construct: Spleens were obtained from mice, cut into pieces, and strained through a 70 μm strainer; from tissue; host or cells: mouse spleen (freshly isolated splenocytes)
T2 sequence (P01731 28-247): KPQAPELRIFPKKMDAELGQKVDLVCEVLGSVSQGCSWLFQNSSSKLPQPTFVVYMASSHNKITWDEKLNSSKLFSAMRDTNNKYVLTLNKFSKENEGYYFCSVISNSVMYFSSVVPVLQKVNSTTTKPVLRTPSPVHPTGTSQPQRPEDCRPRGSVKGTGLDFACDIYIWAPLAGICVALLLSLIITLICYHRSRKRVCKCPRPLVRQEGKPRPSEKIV
T2 sequence (P10300 22-213): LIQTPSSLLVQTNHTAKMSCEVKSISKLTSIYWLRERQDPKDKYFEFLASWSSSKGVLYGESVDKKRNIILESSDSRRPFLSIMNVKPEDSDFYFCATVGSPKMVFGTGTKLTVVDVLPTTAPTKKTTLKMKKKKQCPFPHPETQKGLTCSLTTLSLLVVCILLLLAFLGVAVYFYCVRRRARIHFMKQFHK
In words: In vitro binding of VHHCD8-apoA1 in mice splenocytes. Format: cell-based. The conditions noted are these: 30 minutes at 4° C. The procedure:
In vitro binding of VHHCD8-apoA1 in mice splenocytes: Spleens were obtained from mice, cut into pieces, and strained through a 70 μm strainer (Corning) multiple times to obtain a splenocyte suspension. Cells were spun down at 1500 rpm for 10 minutes, the supernatant was removed and the cells were dissolved in 2 mL 1× red blood cell lysis buffer (Thermofisher). Suspension was incubated at room temperature for 5 minutes, 10 mL Roswell Park Memorial Institute (RPMI) medium (Thermofisher) was added, and cells were again spun down at 1500 rpm for 10 minutes. Cells were then redissolved in RPMI medium and plated in a 96 wells plate at 150.000 cells/well.
The proteins were labeled by adding sulfo-cyanine5-maleimide (Lumiprobe) in dimethyl sulfoxide (DMSO) at a 5× molar excess. This mixture was incubated at room temperature for 2 hours. Excess dye was removed using a PD minitrap G-25 desalting column (Cytiva). Fluorescently labeled aNPs were formulated by adding 6.4 μg Dil for discoidal formulations and 21 μg Dil for spherical formulations (see section “formulating nanoparticles” of Example 2). […] (for aNPs) after which cells were harvested, washed, and stained for CD3 and CD4 and measured on Cytoflex (Beckman Coulter Inc.). Flow cytometry data was analyzed using FlowJo software (BD).

For assay [6], the target named is T3, CD8 receptor on mouse splenocytes (mouse, UniProt P01731 28-247; P10300 22-213).
T3 construct: whole, on cells
T3 sequence (P01731 28-247, chain 1 of 2): as the sequence (P01731 28-247) above
T3 sequence (P10300 22-213, chain 2 of 2): as the sequence (P10300 22-213) above
In words: flow cytometry, fluorescently labelled protein on mouse splenocytes; upper panel 'MFI APC (CD8+) of CD3+ T cells'. (In general: In flow cytometry, cells or beads pass a laser one at a time.)
Description: The proteins were labeled by adding sulfo-cyanine5-maleimide (Lumiprobe) in dimethyl sulfoxide (DMSO) at a 5× molar excess. This mixture was incubated at room temperature for 2 hours. Excess dye was removed using a PD minitrap G-25 desalting column (Cytiva). […] Fluorescently labeled fusion proteins or aNPs and controls were added to the wells and incubated for 30 minutes at 4° C. (for proteins) or 37° C. (for aNPs) after which cells were harvested, washed, and stained for CD3 and CD4 and measured on Cytoflex (Beckman Coulter Inc.). Flow cytometry data was analyzed using FlowJo software (BD).

For orientation: EC50 (read off the curve) means the midpoint of the concentration-response curve. A high value points to weaker potency.

“Also recorded” adds a separate entry of the source.

Regarding “apoA1-IL4: fusion protein of human apoA1 and human IL4 via flexible linker, 6his-tag and strep-tag (e.g. SEQ ID NO. 35)”, the “SEAP production by HEK-IL4 reporter cells” value in assay [1] is “prominently produced”.
Regarding `NC(=O)c1cnc(NCCc2ccc(O)c(Cl)c2)nc1NCc1ccccc1` [AS1517499, reference compound], in assay [2], the “effect of inhibitor on IL4's inhibition of acute inflammation (TNF, IL6)” value is listed as “partly restored cytokine production in acute inflammatory responses”. For the same molecule, the “effect of inhibitor on trained immunity induction by IL4 (TNF, IL6)” value in assay [3] is “did not affect trained immunity induction by IL4”.
For apoA1, the “binding to primary human monocytes (rim covering the cell surface)” value in assay [4] (Cy5-labeled, 2 h at 37° C.) was “confirmed”. Moreover, the “association with IL4Rα on the cell surface (co-clusters)” value in assay [4] (zoomed in section of the membrane) is “did not observe”. Further, the “Mean Fluorescence Intensity (MFI) of fluorescently labeled protein” value in assay [5] is “did not show this dose dependent behavior”.
Regarding `CCC(=O)N1CCN(c2ccc(-n3c(=O)ccc4cnc5ccc(-c6cnc7ccccc7c6)cc5c43)cc2C(F)(F)F)CC1` [torin-1, Torin-1, reference compound], the “effect of inhibitor on IL4's inhibition of acute inflammation (TNF, IL6)” value in assay [2] is “did not abrogate the effect of IL4 on acute inflammation”. Moreover, in assay [3], the “effect of inhibitor on trained immunity induction by IL4 (TNF, IL6)” value was “diminished the trained immunity responses; also recorded: significantly blunted”.

B1: VHHCD8-apoA1 fusion protein (VHH)
VHH: QVQLQESGGGLVQAGGSLRLSCAASGFTFDDYAIGWFRQAPGKEREGVSCINNSDGSGYVADSVKGRFTISSDNAKNTVYLQMNSLKPEDTAVYYCAAAGDGGCYYGLDYWGKGTQVTVSS
modifications: labelled with sulfo-cyanine5-maleimide (the linker between apoA1 and VHHCD8 comprises a cysteine)
notes: Fusion of an anti-CD8 VHH with apoA1, expressed in ClearColi; molecular weight 43.3 kDa
Regarding B1, the “EC50 (read off the curve)” value in assay [6] is around 5 nM.
